Data as given in patent publication US7205382B2, “Peptides, the production and use thereof for binding immunoglobulins” (Fresenius Medical Care Affina GmbH, priority 2000, dated 2007).
Bridge positions count the residues as written; N and C are the ends. Square brackets hold non-standard residues; d marks the D form. Ends that are not written are not given here. cellulose = not defined here; βAla = NCCC(=O)O

Tests used:
Type in all cases: binding
Set-up in all cases: key: No binding of immunoglobulin for the defined peptide variant, detection negative: 0; Binding of immunoglobulin for the defined peptide variant, detection positive: +
serum albumin = experiment: Cellulose-immobilized 13-mer peptide variants incubated with serum albumin (negative control), anti-human IgG-AP detection; settings: blocking buffer without addition, 3 h room temperature
Method in brief: (§1)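 SPOT-type 13-mer peptides on cellulose with a (βA)(βA) spacer, blocked in 5% saccharose/4% BSA in T-TBS pH 8.0. Incubated 3 h at RT with human IgG-Fc (1 μg/ml) or human serum/plasma (1:10,000), or with blocking buffer alone as the albumin specificity control. Bound IgG detected with AP-anti-human IgG (1.2 μg/ml) and NBT/BCIP colorimetric development at pH 9.5.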

[1] = tested on: immunoglobulins in human plasma; experiment: Cellulose-immobilized 13-mer peptide variants incubated with human plasma, anti-human IgG-AP detection; settings: human plasma as sample, diluted 1:10,000 in blocking buffer, 3 h room temperature
Method in brief: as §1

human IgG-Fc = experiment: Cellulose-immobilized 13-mer peptide variants incubated with human IgG-Fc, anti-human IgG-AP detection; settings: IgG-Fc 1 μg/ml in blocking buffer, 3 h room temperature
Method in brief: as §1

Row | Result for incubation with serum albumin (immunoglobulin binding detection) (serum albumin) | Result for incubation with human plasma (immunoglobulin binding detection) [1] | Result for incubation with human IgG-Fc (immunoglobulin binding detection) (human IgG-Fc) | Substance
1 | 0 | 0 | 0 | 03M: cellulose-bound 13-mer variant DCMWHLGELVWCT-(βA)(βA) (DCMWHLGELVWCT-{βAla-βAla-cellulose}; disulfide 2-12 (inferred); reading uncertain; also: printed as DCMWHLGELVWCT-(βA)(βA))
2 | 0 | + | + | 06G: cellulose-bound 13-mer variant DCAWHGGELVWCT-(βA)(βA) (DCAWHGGELVWCT[βAla][βAla]; disulfide 2-12 (inferred); not fully specified (N-terminus); printed as DCAWHGGELVWCT-(βA)(βA); also: cellulose-bound)
3 | 0 | 0 | 0 | 07W: cellulose-bound 13-mer variant DCAWHLWELVWCT-(βA)(βA) (DCAWHLWELVWCT-{βAla-βAla-cellulose}; disulfide 2-12 (inferred); not fully specified (N-terminus); printed as DCAWHLWELVWCT-(βA)(βA); reading uncertain)
4 | 0 | 0 | 0 | 09S: cellulose-bound 13-mer variant DCAWHLGESVWCT-(βA)(βA) (DCAWHLGESVWCT-{βAla-βAla-cellulose}; disulfide 2-12 (inferred); reading uncertain; also: printed as DCAWHLGESVWCT-(βA)(βA))
5 | 0 | 0 | 0 | 03P: cellulose-bound 13-mer variant DCPWHLGELVWCT-(βA)(βA) (DCPWHLGELVWCT-{βAla-βAla-cellulose}; disulfide 2-12 (inferred); reading uncertain; also: printed as DCPWHLGELVWCT-(βA)(βA))
6 | 0 | + | + | 06H: cellulose-bound 13-mer variant DCAWHHGELVWCT-(βA)(βA) (DCAWHHGELVWCT-{βAla-βAla-cellulose}; disulfide 2-12 (inferred); not fully specified (N-terminus); printed as DCAWHHGELVWCT-(βA)(βA); reading uncertain)
7 | 0 | 0 | 0 | 10C: cellulose-bound 13-mer variant DCAWHLGELCWCT-(βA)(βA) (DCAWHLGELCWCT-{βAla-βAla-cellulose}; not fully specified (bridges); printed as DCAWHLGELCWCT-(βA)(βA); cysteine pairing not given here; reading uncertain)
8 | 0 | 0 | 0 | 11Y: cellulose-bound 13-mer variant DCAWHLGELVYCT-(βA)(βA)
9 | 0 | 0 | 0 | 02K: cellulose-bound 13-mer variant DKAWHLGELVWCT-(βA)(βA) (DKAWHLGELVWCT[βAla][βAla]; not fully specified; printed as DKAWHLGELVWCT-(βA)(βA); also: cellulose-bound)
10 | 0 | 0 | 0 | 12D: cellulose-bound 13-mer variant DCAWHLGELVWDT-(βA)(βA) (DCAWHLGELVWDT-{βAla-βAla-cellulose}; not fully specified; printed as DCAWHLGELVWDT-(βA)(βA); reading uncertain)
11 | 0 | 0 | 0 | 11R: cellulose-bound 13-mer variant DCAWHLGELVRCT-(βA)(βA)
12 | 0 | 0 | + | 01N: cellulose-bound 13-mer variant NCAWHLGELVWCT-(βA)(βA) (NCAWHLGELVWCT-{βAla-βAla-cellulose}; disulfide 2-12 (inferred); reading uncertain; also: printed as NCAWHLGELVWCT-(βA)(βA))
13 | 0 | 0 | 0 | 10G: cellulose-bound 13-mer variant DCAWHLGELGWCT-(βA)(βA) (DCAWHLGELGWCT-{βAla-βAla-cellulose}; disulfide 2-12 (inferred); reading uncertain; also: printed as DCAWHLGELGWCT-(βA)(βA))

Second part, the substance before the results:

Row | Substance | Result for incubation with serum albumin (immunoglobulin binding detection) (serum albumin) | Result for incubation with human plasma (immunoglobulin binding detection) [1] | Result for incubation with human IgG-Fc (immunoglobulin binding detection) (human IgG-Fc)
14 | 10A: cellulose-bound 13-mer variant DCAWHLGELAWCT-(βA)(βA) (DCAWHLGELAWCT-{βAla-βAla-cellulose}; disulfide 2-12 (inferred); reading uncertain; also: printed as DCAWHLGELAWCT-(βA)(βA)) | 0 | 0 | 0
15 | 09P: cellulose-bound 13-mer variant DCAWHLGEPVWCT-(βA)(βA) (DCAWHLGEPVWCT-{βAla-βAla-cellulose}; disulfide 2-12 (inferred); reading uncertain; also: printed as DCAWHLGEPVWCT-(βA)(βA)) | 0 | 0 | +
16 | 08Q: cellulose-bound 13-mer variant DCAWHLGQLVWCT-(βA)(βA) (DCAWHLGQLVWCT-{βAla-βAla-cellulose}; disulfide 2-12 (inferred); reading uncertain; also: printed as DCAWHLGQLVWCT-(βA)(βA)) | 0 | + | +
17 | 01E: cellulose-bound 13-mer variant ECAWHLGELVWCT-(βA)(βA) (ECAWHLGELVWCT-{βAla-βAla-cellulose}; disulfide 2-12 (inferred); reading uncertain; also: printed as ECAWHLGELVWCT-(βA)(βA)) | 0 | + | +
18 | 10D: cellulose-bound 13-mer variant DCAWHLGELDWCT-(βA)(βA) (DCAWHLGELDWCT-{βAla-βAla-cellulose}; disulfide 2-12 (inferred); reading uncertain; also: printed as DCAWHLGELDWCT-(βA)(βA)) | 0 | 0 | 0
19 | 08P: cellulose-bound 13-mer variant DCAWHLGPLVWCT-(βA)(βA) (DCAWHLGPLVWCT-{βAla-βAla-cellulose}; disulfide 2-12 (inferred); not fully specified (N-terminus); printed as DCAWHLGPLVWCT-(βA)(βA); reading uncertain) | 0 | 0 | 0
20 | 02I: cellulose-bound 13-mer variant DIAWHLGELVWCT-(βA)(βA) (DIAWHLGELVWCT[βAla][βAla]; not fully specified; printed as DIAWHLGELVWCT-(βA)(βA); also: cellulose-bound) | 0 | 0 | 0
21 | 05V: cellulose-bound 13-mer variant DCAWVLGELVWCT-(βA)(βA) (disulfide 2-12 (inferred); not fully specified (N-terminus, C-terminus); printed as DCAWVLGELVWCT-(βA)(βA); also: cellulose-bound) | 0 | 0 | 0
22 | 01D: starting 13-mer DCAWHLGELVWCT-(βA)(βA), R1=amino, cellulose-bound | 0 | + | +
